# Reference: patent US12404262B2 (priority 2021, dated 2025)
# Conditions: 1.0% DMSO, 24-hour incubation at ambient temperature, maximum theoretical 100 μM; for pH 2 solubility: 0.1N HCl, first value of the cell; for pH 7 solubility: 1×PBS buffer (pH 7.4), second value of the cell
Compound,pH 2 solubility,pH 7 solubility
"CC(NC(=O)N(c1nn(CC(F)(F)F)c2c(-c3ccc(C#CC(C)(C)S(C)(=O)=O)nc3[C@H](Cc3cc(F)cc(F)c3)NC(=O)Cn3nc(C(F)(F)F)c4c3C(F)(F)[C@@H]3C[C@H]43)ccc(Cl)c12)S(C)(=O)=O)(C(=O)O)C(=O)O [Compound 52, 2-(3-(4-chloro-7-(2-((S)-1-(2-((3bS,4aR)-5,5-difluoro-3-(trifluoromethyl)-3b,4,4a,5-tetrahydro-1H-cyclopropa[3,4]cyclopenta[1,2-c]pyrazol-1-yl)acetamido)-2-(3,5-difluorophenyl)ethyl)-6-(3-methyl-3-(methylsulfonyl)but-1-yn-1-yl)pyridin-3-yl)-1-(2,2,2-trifluoroethyl)-1H-indazol-3-yl)-3-(methylsulfonyl)ureido)-2-methylmalonic acid]",1 μM,100 μM
"CC(C)(C#Cc1ccc(-c2ccc(Cl)c3c(N(C(=O)NCCCP(=O)(O)O)S(C)(=O)=O)nn(CC(F)(F)F)c23)c([C@H](Cc2cc(F)cc(F)c2)NC(=O)Cn2nc(C(F)(F)F)c3c2C(F)(F)[C@@H]2C[C@H]32)n1)S(C)(=O)=O [Compound 54-1, (3-(3-(4-chloro-7-(2-((S)-1-(2-((3bS,4aR)-5,5-difluoro-3-(trifluoromethyl)-3b,4,4a,5-tetrahydro-1H-cyclopropa[3,4]cyclopenta[1,2-c]pyrazol-1-yl)acetamido)-2-(3,5-difluorophenyl)ethyl)-6-(3-methyl-3-(methylsulfonyl)but-1-yn-1-yl)pyridin-3-yl)-1-(2,2,2-trifluoroethyl)-1H-indazol-3-yl)-3-(methylsulfonyl)ureido)propyl)phosphonic acid]",1 μM,14 μM
"CC(C)(C#Cc1ccc(-c2ccc(Cl)c3c(N(C(=O)NCCCCP(=O)(O)O)S(C)(=O)=O)nn(CC(F)(F)F)c23)c([C@H](Cc2cc(F)cc(F)c2)NC(=O)Cn2nc(C(F)(F)F)c3c2C(F)(F)[C@@H]2C[C@H]32)n1)S(C)(=O)=O [Compound 55, (4-(3-(4-chloro-7-(2-((S)-1-(2-((3bS,4aR)-5,5-difluoro-3-(trifluoromethyl)-3b,4,4a,5-tetrahydro-1H-cyclopropa[3,4]cyclopenta[1,2-c]pyrazol-1-yl)acetamido)-2-(3,5-difluorophenyl)ethyl)-6-(3-methyl-3-(methylsulfonyl)but-1-yn-1-yl)pyridin-3-yl)-1-(2,2,2-trifluoroethyl)-1H-indazol-3-yl)-3-(methylsulfonyl)ureido)butyl)phosphonic acid]",1 μM,13 μM

# The remaining lines, values ahead:
pH 2 solubility,pH 7 solubility,Compound
1/1 μM,1/1 μM,"COC(=O)CN(C)C(=O)N(c1nn(CC(F)(F)F)c2c(-c3ccc(C#CC(C)(C)S(C)(=O)=O)nc3[C@H](Cc3cc(F)cc(F)c3)NC(=O)Cn3nc(C(F)(F)F)c4c3C(F)(F)[C@@H]3C[C@H]43)ccc(Cl)c12)S(C)(=O)=O [Compound 43, methyl N-((4-chloro-7-(2-((S)-1-(2-((3bS,4aR)-5,5-difluoro-3-(trifluoromethyl)-3b,4,4a,5-tetrahydro-1H-cyclopropa[3,4]cyclopenta[1,2-c]pyrazol-1-yl)acetamido)-2-(3,5-difluorophenyl)ethyl)-6-(3-methyl-3-(methylsulfonyl)but-1-yn-1-yl)pyridin-3-yl)-1-(2,2,2-trifluoroethyl)-1H-indazol-3-yl)(methylsulfonyl)carbamoyl)-N-methylglycinate]"
1/1 μM,1/1 μM,"CN(CC(C)(C)O)C(=O)N(c1nn(CC(F)(F)F)c2c(-c3ccc(C#CC(C)(C)S(C)(=O)=O)nc3[C@H](Cc3cc(F)cc(F)c3)NC(=O)Cn3nc(C(F)(F)F)c4c3C(F)(F)[C@@H]3C[C@H]43)ccc(Cl)c12)S(C)(=O)=O [Compound 47, N—((S)-1-(3-(4-chloro-3-(N-((2-hydroxy-2-methylpropyl)(methyl)carbamoyl)methylsulfonamido)-1-(2,2,2-trifluoroethyl)-1H-indazol-7-yl)-6-(3-methyl-3-(methylsulfonyl)but-1-yn-1-yl)pyridin-2-yl)-2-(3,5-difluorophenyl)ethyl)-2-((3bS,4aR)-5,5-difluoro-3-(trifluoromethyl)-3b,4,4a,5-tetrahydro-1H-cyclopropa[3,4]cyclopenta[1,2-c]pyrazol-1-yl)acetamide]"
1/1 μM,1/1 μM,"C[C@@H](O)CN(C)C(=O)N(c1nn(CC(F)(F)F)c2c(-c3ccc(C#CC(C)(C)S(C)(=O)=O)nc3[C@H](Cc3cc(F)cc(F)c3)NC(=O)Cn3nc(C(F)(F)F)c4c3C(F)(F)[C@@H]3C[C@H]43)ccc(Cl)c12)S(C)(=O)=O [Compound 48, N—((S)-1-(3-(4-chloro-3-(N—(((R)-2-hydroxypropyl)(methyl)carbamoyl)methylsulfonamido)-1-(2,2,2-trifluoroethyl)-1H-indazol-7-yl)-6-(3-methyl-3-(methylsulfonyl)but-1-yn-1-yl)pyridin-2-yl)-2-(3,5-difluorophenyl)ethyl)-2-((3bS,4aR)-5,5-difluoro-3-(trifluoromethyl)-3b,4,4a,5-tetrahydro-1H-cyclopropa[3,4]cyclopenta[1,2-c]pyrazol-1-yl)acetamide]"
1 μM,82 μM,"C[C@H](CN(C)C(=O)N(c1nn(CC(F)(F)F)c2c(-c3ccc(C#CC(C)(C)S(C)(=O)=O)nc3[C@H](Cc3cc(F)cc(F)c3)NC(=O)Cn3nc(C(F)(F)F)c4c3C(F)(F)[C@@H]3C[C@H]43)ccc(Cl)c12)S(C)(=O)=O)OP(=O)(O)O [Compound 49, (R)-1-(3-(4-chloro-7-(2-((S)-1-(2-((3bS,4aR)-5,5-difluoro-3-(trifluoromethyl)-3b,4,4a,5-tetrahydro-1H-cyclopropa[3,4]cyclopenta[1,2-c]pyrazol-1-yl)acetamido)-2-(3,5-difluorophenyl)ethyl)-6-(3-methyl-3-(methylsulfonyl)but-1-yn-1-yl)pyridin-3-yl)-1-(2,2,2-trifluoroethyl)-1H-indazol-3-yl)-1-methyl-3-(methylsulfonyl)ureido)propan-2-yl dihydrogen phosphate]"
1 μM,2 μM,"CN(CCO)C(=O)N(c1nn(CC(F)(F)F)c2c(-c3ccc(C#CC(C)(C)S(C)(=O)=O)nc3[C@H](Cc3cc(F)cc(F)c3)NC(=O)Cn3nc(C(F)(F)F)c4c3C(F)(F)[C@@H]3C[C@H]43)ccc(Cl)c12)S(C)(=O)=O [Compound 50, N—((S)-1-(3-(4-chloro-3-(N-((2-hydroxyethyl)(methyl)carbamoyl)methylsulfonamido)-1-(2,2,2-trifluoroethyl)-1H-indazol-7-yl)-6-(3-methyl-3-(methylsulfonyl)but-1-yn-1-yl)pyridin-2-yl)-2-(3,5-difluorophenyl)ethyl)-2-((3bS,4aR)-5,5-difluoro-3-(trifluoromethyl)-3b,4,4a,5-tetrahydro-1H-cyclopropa[3,4]cyclopenta[1,2-c]pyrazol-1-yl)acetamide]"
